Assay results taken from US20240374631A1, “A COMPOSITION FOR IMPROVING GUT MICROBIOTA, BEHAVIOURAL PATTERN, ALPHA-SYNUCLEIN LEVELS, SLEEP PATTERN AND/OR SERUM MELATONIN” (GN Corporation Co Ltd, priority 2021, published 2024).

Test system: gut microbiota
Test: Gut microbiome analysis (16S rRNA sequencing of fecal samples) in STAM model of NASH
Format: in vivo, C57BL/6J mice
Source text: The study is reported in accordance with Animal Research: Reporting of In Vivo Experiments (ARRIVE) guidelines. C57BL/6J mice were obtained from Japan SLC, Inc. (Japan). All animals used in this study were cared for under the following guidelines: Act on Welfare and Management of Animals (Ministry of the Environment, Japan, Act No. 105 of Oct. 1, 1973), standards relating to the care and management of laboratory animals and relief of pain (Notice No. 88 of the Ministry of the Environment, Japan, Apr. 28, 2006) and the guidelines for proper conduct of animal experiments (Science Council of Japan, Jun. 1, 2006). Protocol approvals were obtained from SMC Laboratories, Japan's IACUC (Study reference no: […] Mice were maintained in a specific pathogen-free (SPF) facility under controlled conditions of temperature (23±3° C.), humidity (50±20%), lighting (12-hour artificial light and dark cycles; light from 8:00 to 20:00) and air exchange. The STAM model of NASH was induced as previously described [D10]. Mice were given a single subcutaneous injection of 200 μg streptozotocin (STZ, Sigma-Aldrich, USA) solution 2 days after birth and fed with a high-fat diet (HFD, 57 kcal % fat, Cat #HFD32, CLEA Japan, Inc., Japan) from 4-9 weeks of age. All mice develop liver steatosis and diabetes and at […] mice had established steatohepatitis, histologically. Studygroups: There were five study groups, described below. Eight mice were included in each study group. Eight NASH mice were orally administered vehicle supplemented with AFO-202 Beta Glucan at a dose of 1 mg/kg in a volume of 5 mL/kg once daily from 6 to 9 weeks of age. Eight NASH mice were orally administered vehicle supplemented with Telmisartan at a dose of 10 mg/kg once daily from 6 to 9 weeks of age. Frequency: Fecal samples were collected at the 6 weeks of age (before administration) and 9 weeks of age (before sacrifice). Procedure: At 6 weeks of age, fecal samples were collected from each mouse by clean catch method. […] A sterile petri dish was placed on the bench. Gently massage the abdomen, position the bottom of mouse over a fresh petri dish, and collect 1-2 fecal pellets. At sacrifice, fecal samples were aseptically collected from cecum. The tubes with feces were placed on ice immediately. These tubes were snap frozen in liquid nitrogen and stored at -80° C. for shipping. In this analysis, the 16S rRNA sequence data acquired by the next-generation sequencer from the fecal […] was used to perform community analysis using the QIIME2 program for microbial community analysis. The raw read data in FASTQ format output from the next-generation sequencer was trimmed to remove adapter sequences and low QV regions that may be included in the data. Cutadapt was used to remove adapter sequences from DNA sequencing reads. Trimmomatic was used as read trimming tool for Illumina NGS data. The adapter sequence was trimmed using the adapter trimming program “cutadapt” if the Trimming of the region at the end of the read sequence overlapped the corresponding sequence by at least one base (mismatch tolerance: 20%). When reads containing N were present in at least one of Read1 and Read2, both Read1 and Read2 were removed. Trimming of low QV regions was performed on the read data after processing using the QV trimming program “Trimmomatic” under the following conditions. The window of 20 bases is slid from the 5' side, and the area where the average QV is less than 20 is trimmed. After trimming, only the reads with more than 50 bases remaining in both Read1 and Read2 were taken as output. The microbial community analysis based on 16S rRNA sequence was performed on the sequence data trimmed in the previous section using the microbial community analysis program “QIIME2”. The annotation program “sklearn” included in QIIME2 is used to annotate the ASV (OTU) sequences. […]

## CCCc1nc2c(C)cc(-c3nc4ccccc4n3C)cc2n1Cc1ccc(-c2ccccc2C(=O)O)cc1 [Telmisartan]
post-intervention, table row r426
  Abundance: Family Erysipelotrichaceae, Genus —, Species —: 0
post-intervention, table row r427
  Abundance: Family Deferribacteraceae, Genus Mucispirillum, Species schaedleri: 0
post-intervention, table row r428
  Abundance: Family Methylobacteriaceae, Genus Methylobacterium, Species Other: 0
post-intervention, table row r429
  Abundance: Family Methanobacteriaceae, Genus Methanobrevibacter, Species —: 0
post-intervention, table row r431
  Abundance: Family Lachnospiraceae, Genus Other, Species Other: 0
post-intervention, table row r432
  Abundance: Family Lachnospiraceae, Genus Dorea, Species —: 0
post-intervention, table row r433
  Abundance: Family Lachnospiraceae, Genus Dorea, Species —: 0
post-intervention, table row r434
  Abundance: Family Lachnospiraceae, Genus —, Species —: 0
post-intervention, table row r435
  Abundance: Family Erysipelotrichaceae, Genus —, Species —: 0
post-intervention, table row r437
  Abundance: Family Other, Genus Other, Species Other: 0
post-intervention, table row r438
  Abundance: Family Ruminococcaceae, Genus Ruminococcus, Species —: 11
post-intervention, table row r439
  Abundance: Family Lachnospiraceae, Genus Other, Species Other: 0
post-intervention, table row r440
  Abundance: Family Erysipelotrichaceae, Genus Clostridum, Species cocleatum: 0
post-intervention, table row r441
  Abundance: Family Clostridiaceae, Genus —, Species —: 0
post-intervention, table row r442
  Abundance: Family S24-7, Genus —, Species —: 0
post-intervention, table row r443
  Abundance: Family Ruminococcaceae, Genus Oscillospira, Species —: 10
post-intervention, table row r446
  Abundance: Family Erysipelotrichaceae, Genus —, Species —: 9
post-intervention, table row r447
  Abundance: Family Streptococcaceae, Genus —, Species —: 0
post-intervention, table row r448
  Abundance: Family Erysipelotrichaceae, Genus —, Species —: 0
post-intervention, table row r449
  Abundance: Family Turicibacteraceae, Genus Turicibacter, Species —: 0
post-intervention, table row r450
  Abundance: Family S24-7, Genus —, Species —: 0
post-intervention, table row r451
  Abundance: Family Ruminococcaceae, Genus Oscillospira, Species —: 0
post-intervention, table row r452
  Abundance: Family Lachnospiraceae, Genus —, Species —: 0
post-intervention, table row r454
  Abundance: Family Erysipelotrichaceae, Genus —, Species —: 0
post-intervention, table row r455
  Abundance: Family Ruminococcaceae, Genus Ruminococcus, Species —: 7
post-intervention, table row r456
  Abundance: Family Moraxellaceae, Genus Psychrobacter, Species Other: 0
post-intervention, table row r457
  Abundance: Family Paenibacillaceae, Genus Other, Species Other: 0
post-intervention, table row r458
  Abundance: Family Lachnospiraceae, Genus Coprococcus, Species —: 0
post-intervention, table row r459
  Abundance: Family Bacillaceae, Genus Bacillus, Species —: 0
post-intervention, table row r460
  Abundance: Family Enterococcaceae, Genus Vagococcus, Species —: 0
post-intervention, table row r462
  Abundance: Family Lachnospiraceae, Genus —, Species —: 0
post-intervention, table row r466
  Abundance: Family Ruminococcaceae, Genus Oscillospira, Species —: 0
post-intervention, table row r468
  Abundance: Family Erysipelotrichaceae, Genus —, Species —: 0
post-intervention, table row r469
  Abundance: Family Other, Genus Other, Species Other: 4
post-intervention, table row r470
  Abundance: Family Clostridiaceae, Genus Clostridium, Species Other: 0
post-intervention, table row r473
  Abundance: Family Ruminococcaceae, Genus —, Species —: 0
post-intervention, table row r474
  Abundance: Family Deferribacteraceae, Genus Mucispirillum, Species schaedleri: 0
post-intervention, table row r475
  Abundance: Family Turicibacteraceae, Genus Turicibacter, Species —: 0
post-intervention, table row r478
  Abundance: Family [Mogibacteriaceae], Genus —, Species —: 0
post-intervention, table row r480
  Abundance: Family Lachnospiraceae, Genus Dorea, Species longicateria: 0
post-intervention, table row r481
  Abundance: Family Ruminococcaceae, Genus —, Species —: 0
post-intervention, table row r482
  Abundance: Family Lachnospiraceae, Genus —, Species —: 0
post, line r8
  Abundance Erysipelotrichaceae/Allobaculum/—: 622
post, line r9
  Abundance Turicibacteraceae/Turicibacter/—: 786
post, line r10
  Abundance Desulfovibrionaceae/—/—: 6012
post, line r11
  Abundance Clostridiaceae/Other/Other: 723
post, line r12
  Abundance Lactobacillaceae/Lactobacillus/—: 254
post, line r13
  Abundance Streptococcaceae/Lactococeus/—: 1948
post, line r14
  Abundance Bacteroidaceae/Bacteroides/—: 8412
post, line r15
  Abundance [Paraprevotellaceae]/[Prevotella]/—: 7582
post, line r16
  Abundance —/—/—: 6029
post, line r17
  Abundance Deferribacteraceae/Mucispirillum/schaedleri: 1921
post, line r18
  Abundance Bacteroidaceae/Bacteroides/acidifaciens: 2571
post, line r19
  Abundance —/—/—: 2764
post, line r20
  Abundance Verrucomicrobiaceae/Akkermansia/muciniphila: 320
post, line r22
  Abundance Enterobacteriaceae/Other/Other: 40
post, line r23
  Abundance Lactobacillaceae/Lactobacillus/—: 513
post, line r24
  Abundance S24-7/—/—: 411
post, line r25
  Abundance Lachnospiraceae/—/—: 1545
post, line r26
  Abundance Peptostreptocpccaceae/—/—: 181
post, line r27
  Abundance Lachnospiraceae/[Ruminococcus]/gnavus: 898
post, line r28
  Abundance Lachnospiraceae/Coprococeus/—: 1468
post, line r29
  Abundance Bifidobacteriaceae/Bifidobacterium/pseudolongum: 111
post, line r30
  Abundance Enterobacteriaceae/Proteus/—: 1153
post, line r31
  Abundance Lactobacillaceae/Lactobacillus/Other: 111
post, line r32
  Abundance S24-7/—/—: 329
post, line r33
  Abundance Porphyromonadaceae/Parabacteroides/distasonis: 1437
post, line r34
  Abundance Clostridiaceae/—/—: 79
post, line r35
  Abundance —/—/—: 536
post, line r36
  Abundance Desulfovibrionaceae/Desulfovibrio/—: 503
post, line r37
  Abundance S24-7/—/—: 271
post, line r38
  Abundance Coriobacteriaceae/Adlercreutzia/—: 135
post, line r39
  Abundance S24-7/—/—: 527
post, line r40
  Abundance Erysipelotrichaceae/Clostridium/cocleatum: 696
post, line r41
  Abundance Ruminococcaceae/Ruminococcus/—: 266
post, line r43
  Abundance Lachnospiraceae/Other/Other: 436
post, line r44
  Abundance Lachnospiraceae/[Ruminococcus]/gnavus: 87
post, line r45
  Abundance Turicibacteraceae/Turicibacter/—: 0
post, line r46
  Abundance Lachnospiraceae/—/—: 253
post, line r47
  Abundance Bacteroidaceae/Bacteroides/—: 2042
post, line r48
  Abundance Ruminococcaceae/Oscillospira/—: 621
post, line r49
  Abundance Clostridiaceae/Other/Other: 70
post, line r50
  Abundance Lachnospiraceae/Roseburia/—: 927
post, line r51
  Abundance Lachnospiraceae/—/—: 698
post, line r52
  Abundance S24-7/—/—: 104
post, line r53
  Abundance Lachnospiraceae/[Ruminococcus]/gnavus: 126
post, line r56
  Abundance Lachnospiraceae/Coprococcus/—: 562
post, line r57
  Abundance S24-7/—/—: 144
post, line r58
  Abundance S24-7/—/—: 410
post, line r60
  Abundance Lachnospiraceae/Other/Other: 245
post, line r61
  Abundance Lachnospiraceae/[Ruminococcus]/gnavus: 686
post, line r62
  Abundance Erysipelotrichaceae/Allobaculum/—: 0
post, line r63
  Abundance Desulfovibrionaceae/Desulfovibrio/C21_c20: 43
post, line r64
  Abundance S24-7/—/—: 152
post, line r66
  Abundance Streptococcaceae/Lactococcus/garvieae: 8
post, line r68
  Abundance Enterobacteriaceae/Proteus/—: 386
post, line r69
  Abundance Lachnospiraceae/—/—: 786
post, line r70
  Abundance S24-7/—/—: 74
post, line r71
  Abundance Lachnospiraceae/[Ruminococcus]/gnavus: 331
post, line r73
  Abundance Clostridiaceae/Clostridium/Other: 0
post, line r74
  Abundance Lachnospiraceae/—/—: 15
post, line r75
  Abundance Clostridiaceae/Other/Other: 49
post, line r78
  Abundance S24-7/—/—: 101
